Test results published in patent US9931342B2, “Compositions and methods for the treatment of cancer” (Duke University, priority 2016, dated 2018).

Assays:
[1] = tested on: RAF-ERK pathway; assay: ERK activation, Western blot of 1833 breast cancer cell lysates; type: cell-based, human; conditions: 10 μM, 3 hours, 1833 cells
Procedure: (§1) Cells were lysed in radio-immunoprecipitation assay buffer with protease and phosphatase inhibitors. Cell debris was removed by microcentrifugation, and protein was quantified. Alternatively, equal cell numbers were plated onto six-well plates, and 24 hours later, conditioned medium was harvested and concentrated using Amicon Ultra Centrifugal Filters (Millipore). Equal amounts of protein or conditioned medium were separated by SDS-polyacrylamide gel electrophoresis and transferred onto nitrocellulose membranes and probed with the indicated antibodies.

[2] = tested on: 1833 breast cancer cells; assay: Breast cancer bone metastasis after intra-cardiac injection of 1833 cells in mice; type: in vivo
Description: (A) Experimental design. (B) Survival of mice after intra-cardiac injection of 1833 (1×10^5) breast cancer cells and treatment with either dimethyl sulfoxide (DMSO) control or the allosteric ABL inhibitor GNF5. n=10 mice per group. (C) Bioluminescent images of representative mice at day 22 after inoculation. (D) Quantification of bone metastases. n=10 mice per group. (E and F) Representative H&E staining (E) and quantification (F) of H&E stained tumor area of bone lesions. Arrows indicate tumor. n=3 mice per group. Scale bar, 200 μm. (G and H) Representative x-ray and μCT reconstruction (G) of mouse tibias and quantification (H) of bone volume/total volume. n=3 mice per group.
Procedures involving mice were approved and performed following the guidelines of the Institutional Animal Care and Use Committee (IACUC) of Duke University Division of Laboratory Animal Resources (DLAR). Age-matched female athymic NCr nu/nu mice (5 to 6 weeks old) were used for xenograft experiments. For intra-cardiac injections, cells were harvested from sub-confluent culture plates, washed with phosphate-buffered saline (PBS), and resuspended at 106/ml (1833) or 5×10^6/ml (SCP28) in PBS; 0.1 ml of the suspended cells was injected into the left cardiac ventricle using 30-gauge needles. Mice were anesthetized with isoflurane before injection and imaged by bioluminescence imaging. For intra-tibial injections, mice were anesthetized using a mixture of ketamine (100 mg/kg) and xylazine (10 mg/kg). The injection site was cleaned with a 70% alcohol wipe. Single-cell suspensions (1×10^5 cells) in a final volume of […] were injected into the upper half of the tibia medullary cavity, as felt by a lack of resistance when pushing cells into the cavity. Bioluminescence imaging was used to confirm successful cancer cell inoculation and progression of metastatic bone lesions. The allosteric inhibitor GNF5 was synthesized by the Duke University Small Molecule Synthesis Facility. For drug treatment, the mice were dosed daily with GNF5 in DMSO/peanut oil (1:9) at 50 mg/kg by intraperitoneal injection.
Hind limb bones were excised, fixed in 10% neutral-buffered formalin, and imaged using a μCT scanner (SkyScan 1176, Bruker Corp.) at […] and 180° scanning with a rotation step of 0.7° per image, 242-ms exposure time, 55-kV photon energy, and […]. The images were reconstructed using NReconServer, and bone volume was analyzed by CT analysis software (CTAn, Bruker Corp.).
Hind limb bones were excised, fixed in 10% neutral-buffered formalin, decalcified, and embedded in paraffin for H&E staining (Zhang et al., Cancer Cell, 2009).

[3] = tested on: TAZ; assay: TAZ protein abundance, immunoblot of 1833 cells; type: cell-based, human; conditions: 20 μM, 24 hours
Procedure: Control 1833 cells or 1833 cells expressing murine Ab12-E505K mutant protein were plated (3×10^5 cells per group) in six well plates. Cells were then treated with vehicle (DMSO) or GNF5 (20 μM) for 24 hours and immunoblotted with the indicated antibodies. n=3 blots.
as §1

[4] = tested on: FH-deficient HLRCC; conditions: cited from earlier work
[5] = 50 mg/kg daily i.p. starting day 8

Compound	ERK activation (phospho-Erk) [1]	bone destruction (x-ray, μCT) [2, 5]	bone tumor burden by histological analyses (H&E) [2, 5]	bone metastasis burden by bioluminescence imaging ([2]; 50 mg/kg daily i.p. starting day 8, day 22 imaging)	ratio of bone volume to total volume (μCT) ([2]; 50 mg/kg daily i.p. starting day 8, mouse tibias)	survival of tumor-bearing mice ([2]; 50 mg/kg daily i.p. starting day 8 after intra-cardiac injection)	TAZ protein abundance ([3]; 1833 cells expressing murine ABL2-E505K (GNF5-resistant mutant))	TAZ protein abundance ([3]; control 1833 cells)	cytotoxicity to FH-deficient HLRCC [4]
O=C(NCCO)c1cccc(-c2cc(Nc3ccc(OC(F)(F)F)cc3)ncn2)c1 [GNF5]	does not activate	decreased	decrease	decrease	increased	significant increase	not decreased	decreased	
Cc1ccc(NC(=O)c2ccc(CN3CCN(C)CC3)cc2)cc1Nc1nccc(-c2cccnc2)n1 [imatinib]	promotes ERK activation								cytotoxic
COc1cc2c(Nc3ccc(Br)cc3F)ncnc2cc1OCC1CCN(C)CC1 [vandetanib]									cytotoxic
